# Measured values from patent US7348427B2, “Antipathogenic benzamide compounds” (Genesoft Pharmaceuticals, Inc., priority 2001, dated 2008).
# Tests used:
# [1] = tested on: Bacillus cereus (ATCC 11778); test: MIC, NCCLS broth microdilution assay; type: cell-based; conditions: A = B. cereus ATCC 11778
# Description: (§1) In vitro biological activity data were collected for a variety of microorganisms, including Bacillus cereus (ATCC 11778), Staphylococcus aureus (ATCC 27660, a methicillin resistant strain (MRSA); ATCC 13709, a methicillin sensitive strain (MSSA)); Streptococcus pneumoniae (ATCC 51422, a penicillin resistant strain (PRSP)), Enterococcus faecium (ATCC 51559, a vancomycin resistant strain (VRE)), and Staphylococcus epidermidis (ATCC 12228). Additionally, antifungal activity data were collected for Candida albicans (ATCC 38247).
# (§2) Compounds according to this invention were screened for their in vitro activities against selected species of bacteria and fungi. The minimal inhibition concentration (MIC) of these compounds was determined using the National Committee for Clinical Laboratory Standards (NCCLS) broth microdilution assay in microtiter plates, as set forth in: (1) the guidelines of the National. Committee for Clinical Laboratory Standards (NCCLS) Document M7-A4 (NCCLS, 1997); (2) the guidelines of the National Committee for Clinical Laboratory Standards (NCCLS) Document M11-A4 (NCCLS, 1997); and (3) the guidelines and reference method of the National Committee for Clinical Laboratory Standards (NCCLS) Document M27-T (NCCLS, 1995). For antifungal assays, the method recommended in Murray, P R., 1995 Manual of Clinical Microbiology (ASM Press, Washington, D.C.), was employed.
# [2] = tested on: Staphylococcus aureus (ATCC 13709, a methicillin sensitive strain (MSSA)); test: MIC, NCCLS broth microdilution assay; type: cell-based; conditions: E = S. aureus ATCC 13709
# Description: as §1, §2
# [3] = tested on: Staphylococcus aureus (ATCC 27660, a methicillin resistant strain (MRSA)); test: MIC, NCCLS broth microdilution assay; type: cell-based; conditions: F = S. aureus ATCC 27660
# Description: as §1, §2
# [4] = tested on: Candida albicans (ATCC 38247); test: Antifungal MIC assay; type: cell-based; conditions: B = C. albicans ATCC 38247
# Description: as §1, §2
# E. faecalis ATCC 29212 = test: MIC, NCCLS broth microdilution assay; type: cell-based, Enterococcus faecalis; conditions: C = E. faecalis ATCC 29212
# Description: as §2
# S. pneumoniae ATCC 49619 = test: MIC, NCCLS broth microdilution assay; type: cell-based, Streptococcus pneumoniae; conditions: H = S. pneumoniae ATCC 49619
# Description: as §2
SMILES,Minimum Inhibitory Concentration (MIC) [1],Minimum Inhibitory Concentration (MIC) [2],Minimum Inhibitory Concentration (MIC) [3],Minimum Inhibitory Concentration (MIC) [4],Minimum Inhibitory Concentration (MIC) (E. faecalis ATCC 29212),Minimum Inhibitory Concentration (MIC) (S. pneumoniae ATCC 49619)
Cn1cc(NC(=O)c2cc(NC(=O)c3ccc(C#N)cc3)cn2C)cc1C(=O)NCCN1CCOCC1 [Compound B-69],+ (+ = 12 ≦ MIC ≦ 32),+ (+ = 12 ≦ MIC ≦ 32),>32 mg/L,>32 mg/L,+ (+ = 12 ≦ MIC ≦ 32),+++ (+++ = MIC ≦ 4)
Cc1cc(NC(=O)c2cc(NC(=O)c3cc(NC(=O)c4ccc(F)cc4F)cn3C)cn2CCC[N+](C)(C)C)sn1 [Compound D-6],+ (+ = 12 ≦ MIC ≦ 32),>32 mg/L,+ (+ = 12 ≦ MIC ≦ 32),>32 mg/L,+ (+ = 12 ≦ MIC ≦ 32),+++ (+++ = MIC ≦ 4)
Cn1cc(NC(=O)c2cc(NC(=O)c3cc(NC(=O)c4ccc(F)cc4F)c[nH]3)c[nH]2)cc1C(=O)NCCN1CCOCC1 [Compound C-3],+ (+ = 12 ≦ MIC ≦ 32),+ (+ = 12 ≦ MIC ≦ 32),+ (+ = 12 ≦ MIC ≦ 32),>32 mg/L,++ (++ = 4 < MIC < 12),+++ (+++ = MIC ≦ 4)
Cn1cc(NC(=O)c2cc(NC(=O)c3cc(NC(=O)c4ccc(F)cc4F)cn3C)cn2CCCO)cc1C(=O)NCCN1CCOCC1 [Compound C-4],+ (+ = 12 ≦ MIC ≦ 32),+ (+ = 12 ≦ MIC ≦ 32),+ (+ = 12 ≦ MIC ≦ 32),>32 mg/L,+ (+ = 12 ≦ MIC ≦ 32),+++ (+++ = MIC ≦ 4)
Cn1cc(NC(=O)c2cc(NC(=O)c3ccc(Cl)c(Cl)c3)cn2C)cc1C(=O)NCCN1CCOCC1 [Compound B-54],++ (++ = 4 < MIC < 12),+++ (+++ = MIC ≦ 4),++ (++ = 4 < MIC < 12),>32 mg/L,++ (++ = 4 < MIC < 12),+++ (+++ = MIC ≦ 4)
Cn1cc(NC(=O)c2cc(NC(=O)c3cc(NC(=O)c4cc(NC(=O)c5ccccc5F)cn4C)cn3C)cn2C)cc1C(=O)NCCN1CCOCC1 [Compound B-44],+++ (+++ = MIC ≦ 4),+++ (+++ = MIC ≦ 4),++ (++ = 4 < MIC < 12),>32 mg/L,++ (++ = 4 < MIC < 12),+++ (+++ = MIC ≦ 4)
Cc1cc(NC(=O)c2cc(NC(=O)c3cc(NC(=O)c4ccc(Cl)cc4NCCN4CCCCC4)cn3C)c[nH]2)sn1 [Compound C-22],+++ (+++ = MIC ≦ 4),+++ (+++ = MIC ≦ 4),+++ (+++ = MIC ≦ 4),+ (+ = 12 ≦ MIC ≦ 32),+++ (+++ = MIC ≦ 4),+++ (+++ = MIC ≦ 4)
Cn1cc(NC(=O)c2cc(NC(=O)c3cc(NC(=O)c4ccc(Cl)cc4F)c[nH]3)cn2CCCCl)cc1C(=O)NCCN1CCOCC1 [Compound C-19],+++ (+++ = MIC ≦ 4),+++ (+++ = MIC ≦ 4),+++ (+++ = MIC ≦ 4),>32 mg/L,+++ (+++ = MIC ≦ 4),+++ (+++ = MIC ≦ 4)
CCSCCCn1cc(NC(=O)c2cc(NC(=O)c3ccc(Cl)cc3SCC)cn2C)cc1C(=O)Nc1cc(C(=O)Nc2cc(C(=O)NCCN3CCOCC3)n(C)c2)n(C)c1 [Compound C-20],>32 mg/L,>32 mg/L,>32 mg/L,>32 mg/L,>32 mg/L,+++ (+++ = MIC ≦ 4)
Cc1cc(NC(=O)c2cc(NC(=O)c3cc(NC(=O)c4ccc(Cl)cc4)cn3C)cn2CCN2CCOCC2)sn1 [Compound D-28],+ (+ = 12 ≦ MIC ≦ 32),+ (+ = 12 ≦ MIC ≦ 32),+ (+ = 12 ≦ MIC ≦ 32),>32 mg/L,+ (+ = 12 ≦ MIC ≦ 32),+++ (+++ = MIC ≦ 4)
Cn1cc(NC(=O)c2cc(NC(=O)c3cc(NC(=O)c4ccccc4F)cn3C)cn2C)cc1C(=O)NCCN1CCOCC1 [Compound B-39],+++ (+++ = MIC ≦ 4),+++ (+++ = MIC ≦ 4),++ (++ = 4 < MIC < 12),>32 mg/L,+++ (+++ = MIC ≦ 4),+++ (+++ = MIC ≦ 4)
Cn1cc(NC(=O)c2cc(NC(=O)c3cc(NC(=O)c4ccc(Br)cc4F)cn3C)cn2C)cc1C(=O)NCCN1CCOCC1 [Compound B-83],+++ (+++ = MIC ≦ 4),+++ (+++ = MIC ≦ 4),+++ (+++ = MIC ≦ 4),>32 mg/L,+++ (+++ = MIC ≦ 4),+++ (+++ = MIC ≦ 4)
Cc1cc(NC(=O)c2cc(NC(=O)c3cc(NC(=O)c4ccc(Cl)cc4F)cn3CCCN3CCC(O)CC3)c[nH]2)sn1 [Compound D-24],+++ (+++ = MIC ≦ 4),+++ (+++ = MIC ≦ 4),+++ (+++ = MIC ≦ 4),+++ (+++ = MIC ≦ 4),+++ (+++ = MIC ≦ 4),+++ (+++ = MIC ≦ 4)
Cn1cc(NC(=O)c2cc(NC(=O)c3cc(NC(=O)c4ccc(F)cc4)cn3C)cn2C)cc1C(=O)NCCN1CCSCC1 [Compound B-34],+++ (+++ = MIC ≦ 4),+++ (+++ = MIC ≦ 4),+++ (+++ = MIC ≦ 4),>32 mg/L,+++ (+++ = MIC ≦ 4),+++ (+++ = MIC ≦ 4)
Cc1cc(NC(=O)c2cc(NC(=O)c3cc(NC(=O)c4ccc(Cl)cc4F)c[nH]3)cn2CCC[N+](C)(C)C)sn1 [Compound D-23],+++ (+++ = MIC ≦ 4),+++ (+++ = MIC ≦ 4),+++ (+++ = MIC ≦ 4),++ (++ = 4 < MIC < 12),+++ (+++ = MIC ≦ 4),+++ (+++ = MIC ≦ 4)
C[C@@H]1CN(CCNC(=O)c2cc(NC(=O)c3cc(NC(=O)c4ccc(F)cc4F)cn3C)cn2C)C[C@H](C)O1 [Compound B-12],+++ (+++ = MIC ≦ 4),++ (++ = 4 < MIC < 12),+++ (+++ = MIC ≦ 4),>32 mg/L,+++ (+++ = MIC ≦ 4),+++ (+++ = MIC ≦ 4)
Cn1cc(NC(=O)c2cc(NC(=O)c3ccc(Cl)cc3F)c[nH]2)cc1C(=O)NCCN1CCC(O)CC1 [Compound A-23],+ (+ = 12 ≦ MIC ≦ 32),+ (+ = 12 ≦ MIC ≦ 32),+ (+ = 12 ≦ MIC ≦ 32),>32 mg/L,+ (+ = 12 ≦ MIC ≦ 32),+++ (+++ = MIC ≦ 4)
Cn1cc(NC(=O)c2cc(NC(=O)c3cc(NC(=O)c4ccc(Cl)cc4F)cn3C)cn2CCCCl)cc1C(=O)NCCN1CCOCC1 [Compound C-18],+++ (+++ = MIC ≦ 4),+++ (+++ = MIC ≦ 4),+++ (+++ = MIC ≦ 4),>32 mg/L,+++ (+++ = MIC ≦ 4),+++ (+++ = MIC ≦ 4)
Cn1cc(NC(=O)c2cc(NC(=O)c3cc(NC(=O)c4ccc(F)cc4F)cn3C)c[nH]2)cc1C(=O)NCCN1CCOCC1 [Compound C-2],++ (++ = 4 < MIC < 12),++ (++ = 4 < MIC < 12),++ (++ = 4 < MIC < 12),>32 mg/L,++ (++ = 4 < MIC < 12),+++ (+++ = MIC ≦ 4)
